Measurements from US12233161B1, “Lipids and lipid nanoparticle formulations” (LONGUIDE BIOPHARMA CORPORATION, priority 2024, dated 2025).

Assays:
mice [1] = experiment: In vivo delivery of FLuc-circ-RNA lipid nanoparticles in mice; conditions: Fluc-circ-RNA LNP, IV
How it was run: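 FLuc-circ-RNA-loaded LNPs given to mice by intramuscular (quadriceps), intravenous (tail vein), intraperitoneal or subcutaneous (back) injection, ~75 μL per mouse, 3 mice per group. D-Luciferin (200 μL of 15 mg/mL) injected i.p. 10–15 min before whole-body bioluminescence imaging.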

mice [2] = experiment: In vivo delivery of FLuc-mRNA lipid nanoparticles in mice, in vivo imaging (IVIS)
How it was run: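 Mice (n=3) received about 75 μL FLuc-mRNA LNP per mouse intramuscularly (rectus femoris), intravenously (tail vein), intraperitoneally or subcutaneously (back). After injection, D-luciferin (200 μL, 15 mg/mL) was given i.p. 10-15 min before IVIS imaging.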

[3] = Potential characterization of nucleic acid lipid nanoparticle preparations; type: physicochemical; conditions: Fluc-circ-RNA LNP, preparation given IV
How it was run: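 Zeta potential was read on a Malvern ZEN3700 after diluting 20 μL lipid nanoparticle solution (about 0.04 mg/mL mRNA) into 780 μL ultrapure water. Alternatively, a 27.5 μL sample in 200 μL water was first sized by dynamic light scattering, then diluted with 600 μL more water for potential measurement.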

[4] = Particle size and PDI of nucleic acid lipid nanoparticle preparations by dynamic light scattering; type: physicochemical
How it was run: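 Nanoparticle suspension (about 0.04 mg/mL mRNA) diluted in ultrapure water, mixed by gentle pipetting; particle size measured by dynamic light scattering. Zeta potential measured on the recovered sample after further dilution in ultrapure water.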

[5] = DMG-PEG2000:DSPC:Chol:Lipid 1.00:11.50:22.50:65.00, N/P 65, IV, liver
[6] = DMG-PEG2000:DSPC:Chol:Lipid 1.00:11.50:22.50:65.00, N/P 65, IV, lung
[7] = DMG-PEG2000:DSPC:Chol:Lipid 1.00:11.50:22.50:65.00, N/P 65, IV, spleen
[8] = DMG-PEG2000:DSPC:Chol:Lipid 1.00:16.00:48.00:35.00, N/P 18, IV, liver
[9] = DMG-PEG2000:DSPC:Chol:Lipid 1.00:16.00:48.00:35.00, N/P 18, IV, lung
[10] = DMG-PEG2000:DSPC:Chol:Lipid 1.00:16.00:48.00:35.00, N/P 18, IV, spleen
[11] = DMG-PEG2000:DSPC:Chol:Lipid 1.00:16.00:48.00:35.00, N/P 30, IV, liver
[12] = DMG-PEG2000:DSPC:Chol:Lipid 1.00:16.00:48.00:35.00, N/P 30, IV, lung
[13] = DMG-PEG2000:DSPC:Chol:Lipid 1.00:16.00:48.00:35.00, N/P 30, IV, spleen
[14] = DMG-PEG2000:DSPC:Chol:Lipid 1.00:11.50:22.50:65.00, N/P 65, mRNA LNP
[15] = DMG-PEG2000:DSPC:Chol:Lipid 1.00:16.00:48.00:35.00, N/P 18, mRNA LNP
[16] = DMG-PEG2000:DSPC:Chol:Lipid 1.00:16.00:48.00:35.00, N/P 30, mRNA LNP
[17] = DMG-PEG2000:DSPC:Chol:Lipid 1.47:11.16:38.97:48.40, N/P 30, mRNA LNP
[18] = Fluc-circ-RNA LNP, preparation given IV

CCCCCCCCCCCCOC(=O)C(O)CN(CCN(C)CCN(CC(O)C(=O)OCCCCCCCCCCCC)CC(O)C(=O)OCCCCCCCCCCCC)CC(O)C(=O)OCCCCCCCCCCCC (stereo not shown) [Compound L0262]
% of organ targeting (mice [1]; liver): 3.78% | % of organ targeting (mice [1]; lung): 8.14% | % of organ targeting (mice [1]; spleen): 88.08% | IVIS (mice [2]; DMG-PEG2000:DSPC:Chol:Lipid 1.00:11.50:22.50:65.00, N/P 65, IV, body): 2.54 × 10^7 | % of organ targeting (mice [2]; [5]): 1.47% | IVIS (mice [2]; [5]): 1.32 × 10^6 | % of organ targeting (mice [2]; [6]): 85.62% | IVIS (mice [2]; [6]): 7.69 × 10^7 | % of organ targeting (mice [2]; [7]): 12.91% | IVIS (mice [2]; [7]): 1.16 × 10^7 | IVIS (mice [2]; DMG-PEG2000:DSPC:Chol:Lipid 1.00:16.00:48.00:35.00, N/P 18, IV, body): 1.06 × 10^8 | % of organ targeting (mice [2]; [8]): 5.38% | IVIS (mice [2]; [8]): 5.61 × 10^6 | % of organ targeting (mice [2]; [9]): 1.85% | IVIS (mice [2]; [9]): 1.93 × 10^6 | % of organ targeting (mice [2]; [10]): 92.76% | IVIS (mice [2]; [10]): 9.67 × 10^7 | IVIS (mice [2]; DMG-PEG2000:DSPC:Chol:Lipid 1.00:16.00:48.00:35.00, N/P 30, IV, body): 2.91 × 10^7 | % of organ targeting (mice [2]; [11]): 15.31% | IVIS (mice [2]; [11]): 3.92 × 10^6 | % of organ targeting (mice [2]; [12]): 11.64% | IVIS (mice [2]; [12]): 2.98 × 10^6 | % of organ targeting (mice [2]; [13]): 73.05% | IVIS (mice [2]; [13]): 1.87 × 10^7 | IVIS (mice [2]; DMG-PEG2000:DSPC:Chol:Lipid 1.47:11.16:38.97:48.40, N/P 30, IM, whole body scan): 2.83 × 10^5 | tissue-targeting specificity (lung vs spleen depending on molar percentage of compound) (mice [2]; certain formulations, Table 2): strong tissue-targeting specificity | Zeta potential (mV) [3]: 15.53 mV | PDI [4, 14]: 0.22 ± 0.01 | Particle size [4, 14]: 145.43 ± 1.37 nm | PDI [4, 15]: 0.16 ± 0.03 | Particle size [4, 15]: 135.90 ± 1.28 nm | PDI [4, 16]: 0.18 ± 0.02 | Particle size [4, 16]: 137.37 ± 1.50 nm | PDI [4, 17]: 0.24 ± 0.02 | Particle size [4, 17]: 93.36 ± 1.24 nm | PDI [4, 18]: 0.16 | Particle size (nm) [4, 18]: 128.4 nm
